Earlier results in US20070043030A1, “Pharmaceutical compositions for treating premature ejaculation by pulmonary inhalation” (Vectura Limited, priority 2003, published 2007).

Legend:
rapid ejaculation = conditions: daily oral doses of 25-50 mg
[1] = test system: male patients with primary PE; conditions: oral, 3 to 5 hours before planned intercourse, 4-week treatment period
[2] = oral formulation used for antidepressive indications
ejaculation = conditions: oral administration

Row | SMILES | efficacy in primary PE [1] | delay in ejaculation (ejaculation) | also measured
1 | CN(C)CCCN1c2ccccc2CCc2ccc(Cl)cc21 [clomipramine, 3-chloro-5-[3-(dimethylamino)-propyl]-10,11-dihydro-5H-dibenz[b,f]azepine] | comparable efficacy | – | effect on ejaculatory latency (rapid ejaculation): effective in significantly lengthening ejaculatory latencies; time of peak plasma levels after dosage (oral administration): two; frequency of frequently reported side effects (dry mouth, sweating, constipation, blurred vision, nausea, drowsiness, headache, dizziness) [2]: > 10%
2 | CNCCCN1c2ccccc2CCc2ccc(Cl)cc21 [desmethylclomipramine] | – | – | plasma half-life (oral dose (clomipramine: single oral dose)): around 36 hours
3 | CNCCC(Oc1ccc(C(F)(F)F)cc1)c1ccccc1 (centres unmarked) [fluoxetine] | – | effective in producing a delay in ejaculation | –
4 | Fc1ccc([C@@H]2CCNC[C@H]2COc2ccc3c(c2)OCO3)cc1 [paroxetine] | comparable efficacy | effective in producing a delay in ejaculation | –
5 | CN[C@H]1CC[C@@H](c2ccc(Cl)c(Cl)c2)c2ccccc21 [sertraline] | comparable efficacy | effective in producing a delay in ejaculation | –
6 | CCCc1nn(C)c2c(=O)[nH]c(-c3cc(S(=O)(=O)N4CCN(C)CC4)ccc3OCC)nc12 [sildenafil] | optimal efficacy | – | –
